According to publication PMC10165273, “Itch receptor MRGPRX4 interacts with the receptor activity–modifying proteins” (The Journal of Biological Chemistry, 2023):
Where “and” joins values, the source holds several entries; their conditions need not be identical. Equal values may be shown once. Read-outs that look alike come from different tables or passages of the source.

Biological target: T1, MRGPRX4 (Homo sapiens, UniProt Q96LA9)
T1 construct: expressed in transfected cells; host or cells: HEK293T
Assay: IP1 accumulation HTRF assay, MRGPRX4
Assay type: cell-based
Design: key to IP1 Basal / IP1 accumulation with YM (Figure 1c) / response to agonist, MRGPRX4 / IP1 accumulation: % IP1: unstimulated mock-transfected = 0%, fully stimulated MRGPRX4 = 100%

T1 sequence (Q96LA9 whole entry): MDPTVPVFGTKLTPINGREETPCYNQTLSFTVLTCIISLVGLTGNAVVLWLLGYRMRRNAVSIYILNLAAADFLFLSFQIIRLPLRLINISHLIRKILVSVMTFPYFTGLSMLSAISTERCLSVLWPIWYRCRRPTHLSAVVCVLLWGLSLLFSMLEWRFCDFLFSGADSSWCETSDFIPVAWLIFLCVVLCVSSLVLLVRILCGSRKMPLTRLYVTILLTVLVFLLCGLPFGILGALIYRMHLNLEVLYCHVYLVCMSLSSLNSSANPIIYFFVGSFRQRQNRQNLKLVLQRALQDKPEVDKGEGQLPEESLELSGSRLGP

## CC(C)[C@H]1CC[C@H](C(=O)N[C@H](Cc2ccccc2)C(=O)O)CC1 [Nateglinide]
MRGPRX4 0.25 pg DNA/cell, individual experiments, read-out: potency (Figure 1b top) (converted)
  EC50: 13.5 µM (2×) and 12.5 µM
MRGPRX4 0.5 pg DNA/cell, individual experiments, read-out: efficacy (Figure 1b bottom)
  Emax: 95.7%
MRGPRX4 0.5 pg DNA/cell, individual experiments, read-out: potency (Figure 1b top) (converted)
  EC50: 12.3 µM and 9.23 µM
MRGPRX4 1 pg DNA/cell, individual experiments, read-out: efficacy (Figure 1b bottom)
  Emax: 104%
MRGPRX4 1 pg DNA/cell, individual experiments, read-out: potency (Figure 1b top) (converted)
  EC50: 10.9 µM and 9.68 µM and 8.2 µM
MRGPRX4 2 pg DNA/cell, individual experiments, read-out: efficacy (Figure 1b bottom)
  Emax: 97.2%
MRGPRX4 2 pg DNA/cell, individual experiments, read-out: potency (Figure 1b top) (converted)
  EC50: 6.87 µM and 6.27 µM and 6.64 µM
MRGPRX4 (Fig. 1A), HEK293T, normalized to 100 μM nateglinide
  IP1 Basal: 14.95
MRGPRX4 (Fig. 1A), HEK293T, normalized to 100 μM nateglinide, read-out: IP1 EC50
  EC50: 10.7 µM
MRGPRX4, HEK293T (Fig. 1A), read-out: EC50 concentration, IP1 accumulation
  EC50: 10.6 µM
MRGPRX4: 2pg/cell, log [Nateglinide] (M) -4, Fig S1b/c
  IP1 accumulation: 100
MRGPRX4: 2pg/cell, log [Nateglinide] (M) -4.69897, Fig S1b/c
  IP1 accumulation: 88.6878 and 83.9734
MRGPRX4: 2pg/cell, log [Nateglinide] (M) -5.39794, Fig S1b/c
  IP1 accumulation: 45.9251 and 47.3838
MRGPRX4: 2pg/cell, log [Nateglinide] (M) -6.09691, Fig S1b/c
  IP1 accumulation: 18.7171 and 20.7267
MRGPRX4: 2pg/cell, log [Nateglinide] (M) -6.79588, Fig S1b/c
  IP1 accumulation: 11.3987 and 15.6075
MRGPRX4: 2pg/cell, log [Nateglinide] (M) -7.49485, Fig S1b/c
  IP1 accumulation: 10.9025 and 14.1936
MRGPRX4 DNA 0.25 pg/cell (Fig. S1)
  IP1 Basal: 4.926
MRGPRX4 DNA 0.25 pg/cell (Fig. S1), read-out: IP1 EC50
  EC50: 13.6 µM
MRGPRX4 DNA 0.25 pg/cell (Fig. S1), read-out: IP1 Emax
  Emax: 84.4%
MRGPRX4 DNA 0.25 pg/cell (Fig. S1), read-out: IP1 span
  Emax: 79.5%
MRGPRX4 DNA 0.5 pg/cell (Fig. S1)
  IP1 Basal: 6.421
MRGPRX4 DNA 0.5 pg/cell (Fig. S1), read-out: IP1 EC50
  EC50: 11 µM
MRGPRX4 DNA 0.5 pg/cell (Fig. S1), read-out: IP1 Emax
  Emax: 97.5%
MRGPRX4 DNA 0.5 pg/cell (Fig. S1), read-out: IP1 span
  Emax: 91%
MRGPRX4 DNA 1 pg/cell (Fig. S1)
  IP1 Basal: 9.219
MRGPRX4 DNA 1 pg/cell (Fig. S1), read-out: IP1 EC50
  EC50: 9.79 µM
MRGPRX4 DNA 1 pg/cell (Fig. S1), read-out: IP1 Emax
  Emax: 106%
MRGPRX4 DNA 1 pg/cell (Fig. S1), read-out: IP1 span
  Emax: 96.7%
MRGPRX4 DNA 2 pg/cell (Fig. S1)
  IP1 Basal: 11.77
MRGPRX4 DNA 2 pg/cell (Fig. S1), read-out: IP1 EC50
  EC50: 6.8 µM
MRGPRX4 DNA 2 pg/cell (Fig. S1), read-out: IP1 Emax
  Emax: 108%
MRGPRX4 DNA 2 pg/cell (Fig. S1), read-out: IP1 span
  Emax: 96.3%
MRGPRX4 DNA […] (Fig. S1), read-out: IP1 EC50
  EC50: 13.9 µM
MRGPRX4 DNA […] (Fig. S1), read-out: IP1 Emax
  Emax: 74.8%
MRGPRX4 DNA […] (Fig. S1), read-out: IP1 span
  Emax: 72.2%
MRGPRX4 alone, log [Nateglinide] (M) -4.69897, Fig S3a-c
  IP1 accumulation: 73.8798 and 88.0796
MRGPRX4 alone, log [Nateglinide] (M) -5.39794, Fig S3a-c
  IP1 accumulation: 42.3002 and 52.0108
MRGPRX4 alone, log [Nateglinide] (M) -6.09691, Fig S3a-c
  IP1 accumulation: 21.697 and 30.974
MRGPRX4 alone, log [Nateglinide] (M) -6.79588, Fig S3a-c
  IP1 accumulation: 15.7135 and 25.7363
MRGPRX4 alone, log [Nateglinide] (M) -7.49485, Fig S3a-c
  IP1 accumulation: 14.3426 and 24.4649
SP-FLAG-Nluc-HT7-MRGX4_Tet-GFP10-1D4, log [agonist] (M) -4.09691
  normalized IP1 accumulation: 53.7873 and 50.7716
SP-FLAG-Nluc-HT7-MRGX4_Tet-GFP10-1D4, log [agonist] (M) -4.79588
  normalized IP1 accumulation: 39.105 and 47.513
SP-FLAG-Nluc-HT7-MRGX4_Tet-GFP10-1D4, log [agonist] (M) -5.49485
  normalized IP1 accumulation: 24.2093 and 23.5323
SP-FLAG-Nluc-HT7-MRGX4_Tet-GFP10-1D4, log [agonist] (M) -6.19382
  normalized IP1 accumulation: 9.755 and 12.1626
SP-FLAG-Nluc-HT7-MRGX4_Tet-GFP10-1D4, log [agonist] (M) -6.89279
  normalized IP1 accumulation: 9.31 and 10.6126
SP-FLAG-Nluc-HT7-MRGX4_Tet-GFP10-1D4, log [agonist] (M) -7.59176
  normalized IP1 accumulation: 10.0922 and 8.039
SP-FLAG-Nluc-HT7-MRGX4_Tet-GFP10-1D4 no dox, log [agonist] (M) -4.79588
  normalized IP1 accumulation: 9.836 and 10.4491
SP-FLAG-Nluc-HT7-MRGX4_Tet-GFP10-1D4 no dox, log [agonist] (M) -5.49485
  normalized IP1 accumulation: 7.573 and 7.949
SP-FLAG-Nluc-HT7-MRGX4_Tet-GFP10-1D4 no dox, log [agonist] (M) -6.19382
  normalized IP1 accumulation: 7.652 and 7.516
SP-FLAG-Nluc-HT7-MRGX4_Tet-GFP10-1D4 no dox, log [agonist] (M) -6.89279
  normalized IP1 accumulation: 8.115 and 7.953
SP-FLAG-Nluc-HT7-MRGX4_Tet-GFP10-1D4 no dox, log [agonist] (M) -7.59176
  normalized IP1 accumulation: 8.427 and 8.747
SP-Flag-MRGX4-1D4, log [agonist] (M) -4
  normalized IP1 accumulation: 90.7901 and 99.3577
SP-Flag-MRGX4-1D4, log [agonist] (M) -4.69897
  normalized IP1 accumulation: 68.6541 and 83.0667
SP-Flag-MRGX4-1D4, log [agonist] (M) -5.39794
  normalized IP1 accumulation: 34.48 and 31.1467
SP-Flag-MRGX4-1D4, log [agonist] (M) -6.09691
  normalized IP1 accumulation: 13.1213 and 14.7496
SP-Flag-MRGX4-1D4, log [agonist] (M) -6.79588
  normalized IP1 accumulation: 9.479 and 9.146
SP-Flag-MRGX4-1D4, log [agonist] (M) -7.49485
  normalized IP1 accumulation: 7.648 and 7.711
SP-Flag-MRGX4-GFP10-1D4, log [agonist] (M) -4.69897
  normalized IP1 accumulation: 81.9562 and 74.6812
SP-Flag-MRGX4-GFP10-1D4, log [agonist] (M) -5.39794
  normalized IP1 accumulation: 38.7817 and 35.4094
SP-Flag-MRGX4-GFP10-1D4, log [agonist] (M) -6.09691
  normalized IP1 accumulation: 15.3576 and 16.0977
SP-Flag-MRGX4-GFP10-1D4, log [agonist] (M) -6.79588
  normalized IP1 accumulation: 8.66 and 9.498
SP-Flag-MRGX4-GFP10-1D4, log [agonist] (M) -7.49485
  normalized IP1 accumulation: 9.929 and 8.168
Tet-On MRGPRX4 1pg/cell, Dox 13 ng/mL (Fig. S5B)
  IP1 Basal: -3.433
Tet-On MRGPRX4 1pg/cell, Dox 13 ng/mL (Fig. S5B), read-out: IP1 EC50
  EC50: 19.2 µM
Tet-On MRGPRX4 1pg/cell, Dox 13 ng/mL (Fig. S5B), read-out: IP1 Emax
  Emax: 17.4%
Tet-On MRGPRX4 1pg/cell, Dox 13 ng/mL (Fig. S5B), read-out: IP1 span
  Emax: 20.8%
Tet-On MRGPRX4 1pg/cell, Dox 40 ng/mL (Fig. S5B)
  IP1 Basal: -3.380
Tet-On MRGPRX4 1pg/cell, Dox 40 ng/mL (Fig. S5B), read-out: IP1 EC50
  EC50: 13.7 µM
Tet-On MRGPRX4 1pg/cell, Dox 40 ng/mL (Fig. S5B), read-out: IP1 Emax
  Emax: 18.8%
Tet-On MRGPRX4 1pg/cell, Dox 40 ng/mL (Fig. S5B), read-out: IP1 span
  Emax: 22.1%
Tet-On MRGPRX4 1pg/cell, Dox 1100 ng/mL (Fig. S5B)
  IP1 Basal: -3.039
Tet-On MRGPRX4 1pg/cell, Dox 1100 ng/mL (Fig. S5B), read-out: IP1 EC50
  EC50: 10.8 µM
Tet-On MRGPRX4 1pg/cell, Dox 1100 ng/mL (Fig. S5B), read-out: IP1 Emax
  Emax: 30.6%
Tet-On MRGPRX4 1pg/cell, Dox 1100 ng/mL (Fig. S5B), read-out: IP1 span
  Emax: 33.7%
Tet-On MRGPRX4 1pg/cell, Dox 3300 ng/mL (Fig. S5B)
  IP1 Basal: -1.008
